Laboratory results from ChEMBL document CHEMBL3797052 (Eur J Med Chem, 2016).
pIC50: −log10 of the molar value.

Columns and labels:
[1] = Antiproliferative activity against human HOP92 cells assessed as cell growth at 10^-7 M after 48 hrs by sulforhodamine B assay; format: functional; conditions: HOP-92, 48 h, read-out: Activity
A549 [2] = assay: Antiproliferative activity against human A549/ATCC cells assessed as cell growth at 10^-4 M after 48 hrs by sulforhodamine B assay; format: functional; conditions: A549, 48 h, read-out: Activity
[3] = Antiproliferative activity against human HCT116 cells assessed as cell growth at 10^-4 M after 48 hrs by sulforhodamine B assay; format: functional; conditions: HCT-116, 48 h, read-out: Activity
SN12C = assay: Antiproliferative activity against human SN12C cells assessed as cell growth at 10^-6 M after 48 hrs by sulforhodamine B assay; format: functional; conditions: read-out: Activity
Malme-3M [4] = assay: Antiproliferative activity against human MALME-3M cells assessed as growth inhibition after 48 hrs by sulforhodamine B assay; format: functional; conditions: for CC50: read-out: LC50 (the source's name)
[5] = Antiproliferative activity against human SKOV3 cells assessed as cell growth at 10^-8 M after 48 hrs by sulforhodamine B assay; format: functional; conditions: SK-OV-3, 48 h, read-out: Activity
[6] = Antiproliferative activity against human TK10 cells assessed as cell growth at 10^-7 M after 48 hrs by sulforhodamine B assay; format: functional; conditions: TK-10, 48 h, read-out: Activity
KM12 = assay: Antiproliferative activity against human KM12 cells assessed as cell growth at 10^-7 M after 48 hrs by sulforhodamine B assay; format: functional; conditions: KM12, 48 h, read-out: Activity
A498 [7] = assay: Antiproliferative activity against human A498 cells assessed as cell growth at 10^-7 M after 48 hrs by sulforhodamine B assay; format: functional; conditions: A498, 48 h, read-out: Activity
[8] = Antiproliferative activity against human OVCAR5 cells assessed as cell growth at 10^-7 M after 48 hrs by sulforhodamine B assay; format: functional; conditions: OVCAR-5, 48 h, read-out: Activity
[9] = biological target: Serine/threonine-protein kinase B-raf (Homo sapiens, UniProt P15056, V600E); assay: Inhibition of BRAF V600E mutant (unknown origin) measured after 40 mins by scintillation counting
A549 [10] = assay: Antiproliferative activity against human A549/ATCC cells assessed as cell growth at 10^-6 M after 48 hrs by sulforhodamine B assay; format: functional; conditions: A549, 48 h, read-out: Activity
A549 [11] = assay: Antiproliferative activity against human A549/ATCC cells assessed as cell growth at 10^-8 M after 48 hrs by sulforhodamine B assay; format: functional; conditions: A549, 48 h, read-out: Activity
[12] = Antiproliferative activity against human SF268 cells assessed as cell growth at 10^-7 M after 48 hrs by sulforhodamine B assay; format: functional; conditions: SF-268, 48 h, read-out: Activity
[13] = Antiproliferative activity against human RXF393 cells assessed as cell growth at 10^-7 M after 48 hrs by sulforhodamine B assay; format: functional; conditions: RXF 393, 48 h, read-out: Activity
SK-MEL-28 = assay: Antiproliferative activity against human SK-MEL-28 cells assessed as cell growth at 10^-8 M after 48 hrs by sulforhodamine B assay; format: functional; conditions: SK-MEL-28, 48 h, read-out: Activity
[14] = Antiproliferative activity against human HOP92 cells assessed as cell growth at 10^-6 M after 48 hrs by sulforhodamine B assay; format: functional; conditions: HOP-92, 48 h, read-out: Activity
Malme-3M [15] = assay: Antiproliferative activity against human MALME-3M cells assessed as cell growth at 10^-7 M after 48 hrs by sulforhodamine B assay; format: functional; conditions: read-out: Activity
A498 [16] = assay: Antiproliferative activity against human A498 cells assessed as cell growth at 10^-4 M after 48 hrs by sulforhodamine B assay; format: functional; conditions: A498, 48 h, read-out: Activity
[17] = Antiproliferative activity against human SF539 cells assessed as cell growth at 10^-6 M after 48 hrs by sulforhodamine B assay; format: functional; conditions: SF-539, 48 h, read-out: Activity
NCI-H322M [18] = assay: Antiproliferative activity against human NCI-H322M cells assessed as cell growth at 10^-8 M after 48 hrs by sulforhodamine B assay; format: functional; conditions: read-out: Activity
NCI-H23 = assay: Antiproliferative activity against human NCI-H23 cells assessed as cell growth at 10^-4 M after 48 hrs by sulforhodamine B assay; format: functional; conditions: NCI-H23, 48 h, read-out: Activity
[19] = Antiproliferative activity against human DU145 cells assessed as cell growth at 10^-8 M after 48 hrs by sulforhodamine B assay; format: functional; conditions: DU-145, 48 h, read-out: Activity
U-251 = assay: Antiproliferative activity against human U251 cells assessed as growth inhibition after 48 hrs by sulforhodamine B assay; format: functional; conditions: U-251, 48 h
NCI-H322M [20] = assay: Antiproliferative activity against human NCI-H322M cells assessed as cell growth at 10^-4 M after 48 hrs by sulforhodamine B assay; format: functional; conditions: read-out: Activity
[21] = Antiproliferative activity against human LOXIMVI cells assessed as growth inhibition after 48 hrs by sulforhodamine B assay; format: functional; conditions: LOX IMVI; for CC50: read-out: LC50 (the source's name)
SR = assay: Antiproliferative activity against human SR cells assessed as cell growth at 10^-6 M after 48 hrs by sulforhodamine B assay; format: functional; conditions: read-out: Activity
NCI-H460 = assay: Antiproliferative activity against human NCI-H460 cells assessed as cell growth at 10^-4 M after 48 hrs by sulforhodamine B assay; format: functional; conditions: NCI-H460, 48 h, read-out: Activity
[22] = Antiproliferative activity against human PC3 cells assessed as cell growth at 10^-4 M after 48 hrs by sulforhodamine B assay; format: functional; conditions: PC-3, 48 h, read-out: Activity
SK-MEL-2 = assay: Antiproliferative activity against human SK-MEL-2 cells assessed as growth inhibition after 48 hrs by sulforhodamine B assay; format: functional; conditions: SK-MEL-2, 48 h; for CC50: read-out: LC50 (the source's name)
SK-MEL-5 = assay: Antiproliferative activity against human SK-MEL-5 cells assessed as cell growth at 10^-4 M after 48 hrs by sulforhodamine B assay; format: functional; conditions: SK-MEL-5, 48 h, read-out: Activity
[23] = Antiproliferative activity against human LOXIMVI cells assessed as cell growth at 10^-8 M after 48 hrs by sulforhodamine B assay; format: functional; conditions: LOX IMVI, read-out: Activity
[24] = Antiproliferative activity against human RXF393 cells assessed as growth inhibition after 48 hrs by sulforhodamine B assay; format: functional; conditions: RXF 393, 48 h; for CC50: read-out: LC50 (the source's name)
[25] = Antiproliferative activity against human OVCAR4 cells assessed as cell growth at 10^-7 M after 48 hrs by sulforhodamine B assay; format: functional; conditions: OVCAR-4, 48 h, read-out: Activity
[26] = Antiproliferative activity against human UO31 cells assessed as cell growth at 10^-4 M after 48 hrs by sulforhodamine B assay; format: functional; conditions: UO-31, 48 h, read-out: Activity
K562 = assay: Antiproliferative activity against human K562 cells assessed as growth inhibition after 48 hrs by sulforhodamine B assay; format: functional; conditions: K562, 48 h; for CC50: read-out: LC50 (the source's name)
[27] = Antiproliferative activity against human MOLT4 cells assessed as growth inhibition after 48 hrs by sulforhodamine B assay; format: functional; conditions: MOLT-4, 48 h

Sequence of Serine/threonine-protein kinase B-raf (P15056 2-766 V600E limits assumed): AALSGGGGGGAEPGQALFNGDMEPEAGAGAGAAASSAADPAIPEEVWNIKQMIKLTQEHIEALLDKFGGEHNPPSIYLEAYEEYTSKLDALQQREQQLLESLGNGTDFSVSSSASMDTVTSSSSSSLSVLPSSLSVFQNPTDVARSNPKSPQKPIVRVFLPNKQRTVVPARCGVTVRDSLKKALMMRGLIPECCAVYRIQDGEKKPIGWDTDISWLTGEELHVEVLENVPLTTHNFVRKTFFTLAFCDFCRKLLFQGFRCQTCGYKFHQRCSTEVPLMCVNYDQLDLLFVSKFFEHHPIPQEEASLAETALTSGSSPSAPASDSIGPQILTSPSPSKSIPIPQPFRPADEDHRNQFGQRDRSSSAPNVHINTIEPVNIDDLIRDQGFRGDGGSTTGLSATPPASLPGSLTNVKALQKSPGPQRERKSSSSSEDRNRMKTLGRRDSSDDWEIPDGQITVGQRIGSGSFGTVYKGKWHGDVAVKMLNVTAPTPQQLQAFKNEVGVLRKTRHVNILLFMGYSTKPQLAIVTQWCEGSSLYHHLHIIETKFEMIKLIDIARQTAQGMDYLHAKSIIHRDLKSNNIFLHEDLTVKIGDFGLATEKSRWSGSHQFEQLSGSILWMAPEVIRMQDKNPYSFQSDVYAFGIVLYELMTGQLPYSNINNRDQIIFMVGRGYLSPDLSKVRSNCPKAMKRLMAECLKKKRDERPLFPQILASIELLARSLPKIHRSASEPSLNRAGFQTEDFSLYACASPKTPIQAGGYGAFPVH

CNC(=O)c1cc(Oc2ccc3nc(NC(=O)Nc4cc(C(F)(F)F)cc(C(F)(F)F)c4)sc3c2)ccn1
growth at 0.1 µM [1]: 98%
growth at 100 µM (A549 [2]): -97%
growth at 100 µM [3]: -95%
growth at 1 µM (SN12C): 80%
GI50 (Malme-3M [4]): 0.908 µM
TGI (Malme-3M [4]): 2.49 µM
CC50 (Malme-3M [4]): 6.41 µM
growth at 0.01 µM [5]: 87%
growth at 0.1 µM [6]: 109%
growth at 0.1 µM (KM12): 95%
growth at 0.1 µM (A498 [7]): 111%
growth at 0.1 µM [8]: 98%
pIC50 [9]: 5.91
growth at 1 µM (A549 [10]): 68%
growth at 0.01 µM (A549 [11]): 104%
growth at 0.1 µM [12]: 90%
growth at 0.1 µM [13]: 91%
growth at 0.01 µM (SK-MEL-28): 93%
growth at 1 µM [14]: -2%
growth at 0.1 µM (Malme-3M [15]): 90%
growth at 100 µM (A498 [16]): -93%
growth at 1 µM [17]: 63%
growth at 0.01 µM (NCI-H322M [18]): 95%
growth at 100 µM (NCI-H23): -52%
growth at 0.01 µM [19]: 101%
GI50 (U-251): 1.02 µM
LC50 (U-251): 4.78 µM
TGI (U-251): 2.2 µM
growth at 100 µM (NCI-H322M [20]): -50%
GI50 [21]: 1.21 µM
TGI [21]: 2.53 µM
CC50 [21]: 5.29 µM
growth at 1 µM (SR): 34%
growth at 100 µM (NCI-H460): -71%
growth at 100 µM [22]: -75%
GI50 (SK-MEL-2): 1.05 µM
TGI (SK-MEL-2): 3.13 µM
CC50 (SK-MEL-2): 9.31 µM
growth at 100 µM (SK-MEL-5): -72%
growth at 0.01 µM [23]: 93%
GI50 [24]: 1.25 µM
TGI [24]: 2.99 µM
CC50 [24]: 7.16 µM
growth at 0.1 µM [25]: 94%
growth at 100 µM [26]: -79%
GI50 (K562): 0.784 µM
TGI (K562): 4.86 µM
CC50 (K562): > 100 µM

CNC(=O)c1cc(Oc2ccc3nc(NC(=O)Nc4ccc(Cl)c(Cl)c4)sc3c2)ccn1
growth at 0.1 µM [1]: 110%
growth at 100 µM (A549 [2]): -41%
growth at 100 µM [3]: -54%
growth at 1 µM (SN12C): 102%
GI50 (Malme-3M [4]): 1.51 µM
TGI (Malme-3M [4]): 3.3 µM
CC50 (Malme-3M [4]): 7.21 µM
growth at 0.01 µM [5]: 110%
growth at 0.1 µM [6]: 112%
growth at 0.1 µM (KM12): 100%
growth at 0.1 µM (A498 [7]): 110%
pIC50 [9]: 7.02
growth at 1 µM (A549 [10]): 93%
growth at 0.01 µM (A549 [11]): 98%
growth at 0.1 µM [12]: 99%
growth at 0.1 µM [13]: 101%
growth at 0.01 µM (SK-MEL-28): 95%
growth at 1 µM [14]: 119%
growth at 0.1 µM (Malme-3M [15]): 82%
growth at 100 µM (A498 [16]): -42%
growth at 1 µM [17]: 100%
growth at 0.01 µM (NCI-H322M [18]): 90%
growth at 100 µM (NCI-H23): 6%
growth at 0.01 µM [19]: 102%
GI50 (U-251): 1.83 µM
LC50 (U-251): 6.53 µM
TGI (U-251): 3.46 µM
growth at 100 µM (NCI-H322M [20]): 4%
GI50 [21]: 1.82 µM
TGI [21]: 3.52 µM
CC50 [21]: 6.82 µM
growth at 1 µM (SR): 97%
growth at 100 µM (NCI-H460): -17%
growth at 100 µM [22]: -50%
GI50 (SK-MEL-2): 2.56 µM
TGI (SK-MEL-2): 5.97 µM
CC50 (SK-MEL-2): > 100 µM
growth at 100 µM (SK-MEL-5): -23%
GI50 [27]: > 100 µM
LC50 [27]: > 100 µM
TGI [27]: > 100 µM
growth at 0.01 µM [23]: 95%
GI50 [24]: 1.84 µM
TGI [24]: 3.65 µM
CC50 [24]: 7.24 µM
growth at 0.1 µM [25]: 100%
growth at 100 µM [26]: -72%
GI50 (K562): > 100 µM
TGI (K562): > 100 µM
CC50 (K562): > 100 µM
